Data from the NIST ThermoML archive (doi:10.1016/j.jct.2013.09.018).

Columns and labels:
[1] = cn = amount concentration of the nth substance listed, in mol/dm3; conditions: 101 kPa, Liquid; for viscosity: Capillary tube (Ostwald / Ubbelohde) method; for mass density: Vibrating tube method
[2] = 101 kPa, Liquid; for viscosity: Capillary tube (Ostwald / Ubbelohde) method; for mass density: Vibrating tube method

CO [methanol] + CCCCn1cc[n+](C)c1C.F[B-](F)(F)F
[1], c2 = 0
Conditions | mass density [kg/m3] | viscosity [mPa·s]
298.15 K | 786.61 | 0.545
308.15 K | 777.15 | 0.476
318.15 K | 767.74 | 0.4183

CCCCn1cc[n+](C)c1C.F[B-](F)(F)F [1-butyl-2,3-dimethylimidazolium tetrafluoroborate] + CO
[1]
Conditions | mass density, c1 = 0.005 [kg/m3] | mass density, c1 = 0.01 [kg/m3] | mass density, c1 = 0.015 [kg/m3] | mass density, c1 = 0.02 [kg/m3] | viscosity, c1 = 0.005 [mPa·s] | viscosity, c1 = 0.01 [mPa·s] | viscosity, c1 = 0.015 [mPa·s] | viscosity, c1 = 0.02 [mPa·s]
298.15 K | 787.59 | 788.04 | 788.45 | 788.96 | 0.552 | 0.5649 | 0.5747 | 0.5845
308.15 K | 778.01 | 778.52 | 778.98 | 779.46 | 0.487 | 0.4978 | 0.5043 | 0.513
318.15 K | 768.49 | 769.43 | 769.92 | 770.36 | 0.4271 | 0.436 | 0.4446 | 0.4532

CO [methanol]
[2]
Conditions | mass density [kg/m3] | viscosity [mPa·s]
298.15 K | 786.61 | 0.545
308.15 K | 777.15 | 0.476
318.15 K | 767.74 | 0.4183
